Laboratory results reported in patent US20150258127A1, “METHODS FOR PREVENTING ANTIPHOSPHOLIPID SYNDROME (APS)” (INSERM (INSTITUT NATIONAL DE LA SANTÉ ET DE LA RECHERCHE …, priority 2012, published 2015).
Read-outs that look alike come from different tables or passages of the source.

Assays:
[1] = system: kidney transplant recipients with antiphospholipid antibodies (Tx APA+); experiment: Kidney transplant recipients cohort: vascular lesions, mGFR, allograft survival; type: in vivo, human
From the text: Briefly, the inventors studied a first group of transplant recipients with APA+ (Tx APA+, n=37) and a control group of transplants recipients without APA− (Tx APA−, n=59) engrafted during the same period. These patients were followed in the Transplant unit of Necker Hospital. All patients with functioning allograft had surveillances biopsies and measured glomerular filtration rate (mGFR) at 3- and 12-months post transplantation. Patients had similar immunosuppressive regimen consisting in steroids, purine inhibitor and calcineurine inhibitor, except for thirteen and ten patients in the Tx APA− and Tx APA+ group, respectively, that received sirolimus starting at day 0 instead of calcineurin inhibitor.
(§1) The serum creatinine level was measured using a Synchron Cx4 autoanalyzer (Beckman Coulter, Villepinte, France). The glomerular filtration rate (GFR) was evaluated by iohexol clearance at 3- and 12-months post transplant as previously described^25. Cyclosporine and tacrolimus serum levels were determined by radioimmunoas say and sirolimus serum levels by high-performance liquid chromatography^26.
Biopsy samples and morphological analysis: Human kidney biopsies were either fixed, in alcoholic Bouin's solution (native kidneys) or in alcohol-formalin-acetic acid solution (transplant kidneys). Carotid and left anterior descending arteries from autopsy cases were fixed in formalin. All samples were then embedded in paraffin. […] Kidney biopsies were independently examined and scored by two pathologists at Necker Hospital. Lesions related to APS-nephropathy were quantified according to the usual criteria^12. For each biopsy, the number of vessels displaying fibrous intimal hyperplasia were counted in all the fields of the section, and the data were expressed as the number of damaged vessels for the total number of vascular sections. Lesions related to allograft nephropathy were evaluated according to the Banff classification^27, which takes into account glomerular, tubular and interstitial changes. […]

[2] = system: kidney allograft microcirculation inflammation; experiment: Microcirculation inflammation in kidney biopsies, Banff classification; type: in vivo, human; conditions: Tx aPL+ Siro+, mean ± SEM
From the text: Biopsy samples and morphological analysis: Human kidney biopsies were either fixed, in alcoholic Bouin's solution (native kidneys) or in alcohol-formalin-acetic acid solution (transplant kidneys). Carotid and left anterior descending arteries from autopsy cases were fixed in formalin. All samples were then embedded in paraffin. Four-μm sections were stained with Periodic Acid Schiff (PAS), Masson's trichrome and hematoxyin and eosin (H&E). […] Kidney biopsies were independently examined and scored by two pathologists at Necker Hospital. Lesions related to APS-nephropathy were quantified according to the usual criteria^12. For each biopsy, the number of vessels displaying fibrous intimal hyperplasia were counted in all the fields of the section, and the data were expressed as the number of damaged vessels for the total number of vascular sections. Lesions related to allograft nephropathy were evaluated according to the Banff classification^27, which takes into account glomerular, tubular and interstitial changes. Autopsy cases were carefully examined by two pathologists at La Pitie Salpetiere Hospital. Vascular lesions, and in particular fibrous intimal hyperplasia, were searched for and characterized in all the tissues.

[3] = Cyclosporine, tacrolimus and sirolimus serum levels in transplant recipients; type: in vivo; conditions: human, 12 months post-transplantation, mean ± SEM
Description: as §1

[4] = system: P-S6RP (mTORC1) in human micro vascular endothelial cells (HMEC); experiment: Western blot of P-S6RP (mTORC1) in HMEC exposed to APA IgG; type: cell-based; conditions: HMEC pretreated one hour with inhibitor (PP242 0.5 μM), then APA IgG 5 minutes
Description: (§2) All experiments were performed in duplicates.
(§3) Western blots were performed as previously described^28. […] Images were acquired using Fusion FX7 system (Vilber Loumart) and analysed using Bio-1D software (Vilber Loumart).

[5] = system: P-AKT (Ser^473) (mTORC2) in human micro vascular endothelial cells (HMEC); experiment: Western blot of P-AKT (Ser473) (mTORC2) in HMEC exposed to APA IgG; type: cell-based; conditions: HMEC pretreated one hour with inhibitor (PP242 0.5 μM; LY294002 20 μM), then APA IgG 5 minutes
Description: as §2, §3

Question: With `CO[C@H]1C[C@@H]2CC[C@@H](C)[C@@](O)(O2)C(=O)C(=O)N2CCCC[C@H]2C(=O)O[C@H]([C@H](C)C[C@@H]2CC[C@@H](O)[C@H](OC)C2)CC(=O)[C@H](C)/C=C(\C)[C@@H](O)[C@@H](OC)C(=O)[C@H](C)C[C@H](C)/C=C/C=C/C=C/1C` [sirolimus, rapamycin] as the compound, how does the “measured glomerular filtration rate (mGFR)” value ([1]; Tx APA+ Siro+ patients, 12 months post transplantation, 39.6±14.6 in APA+ Siro−) read?
Answer: 56 ± 10.8 mL/min

Question: And the death-censored allograft survival ([1]; Tx aPL+ recipients, 12% without sirolimus)?
Answer: 70%

Question: What about the allograft survival rate ([1]; transplant recipients with antiphospholipid antibodies, 8% without sirolimus, up to 144 months post transplantation) of the same compound?
Answer: 70%

Question: And the “C4d (C4 deposits), Banff score” value ([2]; Month 3 post-Tx)?
Answer: 0.2 ± 0.4

Question: And the “g (Glomerulitis), Banff score” value ([2]; Month 3 post-Tx)?
Answer: 0.1 ± 0.4

Question: What about the “ptc (Peritubular Capillaritis), Banff score” value ([2]; Month 3 post-Tx) of the same compound?
Answer: 0.1 ± 0.4

Question: What about the “Banff microcirculation inflammation score” value ([2]; Month 12 post-Tx) of the same compound?
Answer: 0.1 ± 0.3

Question: What about the “C4d (C4 deposits), Banff score” value ([2]; Month 12 post-Tx) of the same compound?
Answer: 0.1 ± 0.3

Question: What about the “ptc (Peritubular Capillaritis), Banff score” value ([2]; Month 12 post-Tx) of the same compound?
Answer: 0.1 ± 0.3

Question: And the concentration at 12 months ([3]; Tx aPL+ Sirolimus+ (n = 10), read-out: 12-Mo Sirolimus levels)?
Answer: 18 ± 9 ng/mL

Question: And the concentration at 12 months ([3]; Tx aPL− (n = 59), read-out: 12-Mo Sirolimus levels)?
Answer: 16 ± 2 ng/mL

Question: Which results are given for `C=CC[C@@H]1/C=C(\C)C[C@H](C)C[C@H](OC)[C@H]2O[C@@](O)(C(=O)C(=O)N3CCCC[C@H]3C(=O)O[C@H](/C(C)=C/[C@@H]3CC[C@@H](O)[C@H](OC)C3)[C@H](C)[C@@H](O)CC1=O)[C@H](C)C[C@@H]2OC` [Tacrolimus]?
Answer: concentration at 12 months ([3]; Tx aPL+ Sirolimus− (n = 27), read-out: 12-Mo Tacrolimus trough levels): 10.3 ± 5.9 ng/mL; concentration at 12 months ([3]; Tx aPL− (n = 59), read-out: 12-Mo Tacrolimus trough levels): 10 ± 6 ng/mL

Question: With `CC(C)n1nc(-c2cc3cc(O)ccc3[nH]2)c2c(N)ncnc21` [PP242] as the compound, how does the “APA-induced S6RP phosphorylation” value [4] read?
Answer: completely abolished

Question: For `O=c1cc(N2CCOCC2)oc2c(-c3ccccc3)cccc12` [LY294002, 2-(4-Morpholinyl)-8-phenyl-4H-1-benzopyran-4-one], which “APA-induced AKT phosphorylation / activation of the AKT pathway” value [5] is on record?
Answer: completely prevent
